Several values for one entry are separate records, joined by “and”; a condition that tells them apart may be missing. Equal entries are not always repeated.
Key:
FGFR1 = FGFR1 (Homo sapiens, UniProt P11362); assay: ELISA kinase assay (FGFR1 enzymatic assay); assay type: biochemical; conditions: for inhibition at 0.1 µM: 0.1 μmol/L compound; for inhibition at 0.1 µM / inhibition at 1 µM / inhibition at 0.01 µM: read-out: Enzyme Inhibition (%); for inhibition at 1 µM: 1 μmol/L compound; for inhibition at 0.01 µM: 0.01 μmol/L compound; for IC50: mean ± SD, two separate experiments
FGFR1, sequence (P11362 22-822): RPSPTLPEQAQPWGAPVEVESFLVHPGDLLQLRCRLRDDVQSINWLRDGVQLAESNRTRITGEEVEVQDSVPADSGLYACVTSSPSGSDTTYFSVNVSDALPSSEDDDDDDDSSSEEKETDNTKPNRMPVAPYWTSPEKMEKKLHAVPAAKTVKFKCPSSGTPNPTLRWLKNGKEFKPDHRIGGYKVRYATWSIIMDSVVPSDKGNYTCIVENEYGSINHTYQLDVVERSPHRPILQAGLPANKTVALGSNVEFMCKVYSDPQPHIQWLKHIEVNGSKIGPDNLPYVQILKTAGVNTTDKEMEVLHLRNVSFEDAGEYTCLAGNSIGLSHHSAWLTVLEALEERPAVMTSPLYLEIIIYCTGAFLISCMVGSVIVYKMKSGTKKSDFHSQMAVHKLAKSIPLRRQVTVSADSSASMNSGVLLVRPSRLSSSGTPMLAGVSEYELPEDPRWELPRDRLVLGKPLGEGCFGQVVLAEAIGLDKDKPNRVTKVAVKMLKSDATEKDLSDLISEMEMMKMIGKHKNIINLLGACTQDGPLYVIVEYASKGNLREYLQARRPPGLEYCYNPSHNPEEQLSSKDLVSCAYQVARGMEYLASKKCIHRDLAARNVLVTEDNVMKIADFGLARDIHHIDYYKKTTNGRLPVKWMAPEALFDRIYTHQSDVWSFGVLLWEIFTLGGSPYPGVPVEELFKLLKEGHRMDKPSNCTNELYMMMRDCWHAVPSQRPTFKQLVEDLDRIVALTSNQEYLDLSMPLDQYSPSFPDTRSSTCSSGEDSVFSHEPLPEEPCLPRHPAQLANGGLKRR
Method: The effects of compounds on the activities of FGFR1 kinases were determined using enzyme-linked immunosorbent assays (ELISAs) with purified recombinant proteins. Briefly, 20 μg/mL poly (Glu, Tyr)4:1 (Sigma, St. Louis, MO, USA) was pre-coated in 96-well plates as a substrate. A 50-μL aliquot of 10 μmol/L ATP solution diluted in kinase reaction buffer (50 mmol/L HEPES [pH 7.4], 50 mmol/L MgCl2, 0.5 mmol/L MnCl2, 0.2 mmol/L Na3VO4, and 1 mmol/L DTT) was added to each well; 1 μL of various concentrations of compounds diluted in 1% DMSO (v/v) (Sigma) were then added to each reaction well. DMSO (1%, v/v) was used as the negative control. The kinase reaction was initiated by the addition of purified tyrosine kinase proteins diluted in 49 μL of kinase reaction buffer. After incubation for 60 min at 37 °C, the plate was washed three times with phosphate-buffered saline (PBS) containing 0.1% Tween 20 (T-PBS). Anti-phosphotyrosine (PY99) antibody (100 μL; 1:500, diluted in 5 mg/mL BSA T-PBS) was then added. After a 30-min incubation at 37 °C, the plate was washed three times, and 100 μL horseradish peroxidase-conjugated goat anti-mouse IgG (1:2000, diluted in 5 mg/mL BSA T-PBS) was added. The plate was then incubated at 37 °C for 30 min and washed 3 times. A 100-μL aliquot of a solution containing 0.03% H2O2 and 2 mg/mL o-phenylenediamine in 0.1 mol/L citrate buffer (pH 5.5) was added. The reaction was terminated by the addition of 50 μL of 2 mol/L H2SO4 as the color changed, and the plate was analyzed using a multi-well spectrophotometer (SpectraMAX 190, Molecular Devices, Palo Alto, CA, USA) at 490 nm. […] The IC50 values were calculated from the inhibition curves in two separate experiments.

| SMILES | inhibition at 0.1 µM (FGFR1) [%] | inhibition at 1 µM (FGFR1) [%] | inhibition at 0.01 µM (FGFR1) [%] | IC50 (FGFR1) | melting point [°C] |
| --- | --- | --- | --- | --- | --- |
| COc1cc(OC)c(Cl)c(-c2cc(C(=O)Nc3cccc(C(C)=O)c3)c3cn[nH]c3c2)c1Cl [Compound 10b, N-(3-Acetylphenyl)-6-(2,6-dichloro-3,5-dimethoxyphenyl)-1H-indazole-4-carboxamide] | 76.4 | 82.4 |  |  |  |
| COc1cc(OC)c(Cl)c(-c2cc(C(=O)Nc3ccc(C(C)=O)cc3)c3cn[nH]c3c2)c1Cl [Compound 10c, N-(4-Acetylphenyl)-6-(2,6-dichloro-3,5-dimethoxyphenyl)-1H-indazole-4-carboxamide] | 32.2 | 52.9 |  |  |  |
| COc1cc(OC)c(Cl)c(-c2cc(C(=O)Nc3ccccc3)c3cn[nH]c3c2)c1Cl [Compound 10a, 6-(2,6-Dichloro-3,5-dimethoxyphenyl)-N-phenyl-1H-indazole-4-carboxamide] | 58.8 | 84.1 | 27.3 | 69.1 ± 19.8 nM | 115 to 117 |
| COc1ccc(NC(=O)c2cc(-c3c(Cl)c(OC)cc(OC)c3Cl)cc3[nH]ncc23)cc1 [Compound 10e, 6-(2,6-Dichloro-3,5-dimethoxyphenyl)-N-(4-methoxyphenyl)-1H-indazole-4-carboxamide] | 11.9 | 68.5 |  |  |  |
| COc1cccc(NC(=O)c2cc(-c3c(Cl)c(OC)cc(OC)c3Cl)cc3[nH]ncc23)n1 [Compound 11a, 6-(2,6-Dichloro-3,5-dimethoxyphenyl)-N-(6-methoxypyridin-2-yl)-1H-indazole-4-carboxamide] | 47.2 | 79.2 |  |  |  |
| COc1cc(NC(=O)c2cc(-c3c(Cl)c(OC)cc(OC)c3Cl)cc3[nH]ncc23)ncn1 [Compound 11d, 6-(2,6-Dichloro-3,5-dimethoxyphenyl)-N-(6-methoxypyrimidin-4-yl)-1H-indazole-4-carboxamide] | 43.1 | 78.5 |  |  |  |
| COc1cc(NC(=O)c2cc(-c3c(Cl)c(OC)cc(OC)c3Cl)cc3[nH]ncc23)ccn1 [Compound 11b, 6-(2,6-Dichloro-3,5-dimethoxyphenyl)-N-(2-methoxypyridin-4-yl)-1H-indazole-4-carboxamide] | 49.5 | 84.3 |  |  |  |
| COc1ccnc(NC(=O)c2cc(-c3c(Cl)c(OC)cc(OC)c3Cl)cc3[nH]ncc23)c1 [Compound 11c, 6-(2,6-Dichloro-3,5-dimethoxyphenyl)-N-(4-methoxypyridin-2-yl)-1H-indazole-4-carboxamide] | 42.3 | 80 |  |  |  |
| COc1cccc(NC(=O)c2cc(-c3c(Cl)c(OC)cc(OC)c3Cl)cc3[nH]ncc23)c1 [Compound 10d, 6-(2,6-Dichloro-3,5-dimethoxyphenyl)-N-(3-methoxyphenyl)-1H-indazole-4-carboxamide] | 57 | 78.4 |  |  |  |
| COc1nccc(NC(=O)c2cc(-c3c(Cl)c(OC)cc(OC)c3Cl)cc3[nH]ncc23)n1 [Compound 11e, 6-(2,6-Dichloro-3,5-dimethoxyphenyl)-N-(2-methoxypyrimidin-4-yl)-1H-indazole-4-carboxamide] | 31 | 57.4 |  |  |  |

Continued, values first:

| inhibition at 0.1 µM (FGFR1) [%] | inhibition at 1 µM (FGFR1) [%] | inhibition at 0.01 µM (FGFR1) [%] | IC50 (FGFR1) | melting point [°C] | SMILES |
| --- | --- | --- | --- | --- | --- |
| 62.3 |  | 42.1 | 38.6 ± 0.2 nM | 155 to 157 | CNC(=O)c1cccc(NC(=O)c2cc(-c3c(Cl)c(OC)cc(OC)c3Cl)cc3[nH]ncc23)c1 [Compound 12b, 6-(2,6-Dichloro-3,5-dimethoxyphenyl)-N-(3-(methylcarbamoyl)phenyl)-1H-indazole-4-carboxamide] |
| 41.3 |  | 35.7 | 464 ± 99.1 nM |  | C=CCN1CCN(c2cccc(NC(=O)c3cc(-c4c(Cl)c(OC)cc(OC)c4Cl)cc4[nH]ncc34)c2)CC1 [Compound 13c, N-(3-(4-Allylpiperazin-1-yl)phenyl)-6-(2,6-dichloro-3,5-dimethoxyphenyl)-1H-indazole-4-carboxamide] |
| 36.7 |  | 17.2 |  |  | COc1cc(OC)c(Cl)c(-c2cc(C(=O)Nc3cccc(N4CCN(C)C4=O)c3)c3cn[nH]c3c2)c1Cl [Compound 12e, 6-(2,6-Dichloro-3,5-dimethoxyphenyl)-N-(3-(3-methyl-2-oxoimidazolidin-1-yl)phenyl)-1H-indazole-4-carboxamide] |
| 31.6 |  | 17.4 |  |  | COc1cc(OC)c(Cl)c(-c2cc(C(=O)Nc3cccc([N+](=O)[O-])c3)c3cn[nH]c3c2)c1Cl [Compound 12d, 6-(2,6-Dichloro-3,5-dimethoxyphenyl)-N-(3-nitrophenyl)-1H-indazole-4-carboxamide] |
| 60.9 |  | 45.1 | 78.8 ± 14.2 nM | 221 to 223 | COc1cc(OC)c(Cl)c(-c2cc(C(=O)Nc3cccc(N4CCNCC4)c3)c3cn[nH]c3c2)c1Cl [Compound 12g, 6-(2,6-Dichloro-3,5-dimethoxyphenyl)-N-(3-(piperazin-1-yl)phenyl)-1H-indazole-4-carboxamide] |
| 18.5 |  | 7.2 |  |  | COc1cc(OC)c(Cl)c(-c2cc(C(=O)Nc3cccc(N4CCN(C(C)C)CC4)c3)c3cn[nH]c3c2)c1Cl [Compound 13d, 6-(2,6-Dichloro-3,5-dimethoxyphenyl)-N-(3-(4-isopropylpiperazin-1-yl)phenyl)-1H-indazole-4-carboxamide] |
| 26.4 |  | 13.7 | 328 ± 65.7 nM |  | CCN1CCN(c2cccc(NC(=O)c3cc(-c4c(Cl)c(OC)cc(OC)c4Cl)cc4[nH]ncc34)c2)CC1 [Compound 13b, 6-(2,6-Dichloro-3,5-dimethoxyphenyl)-N-(3-(4-ethylpiperazin-1-yl)phenyl)-1H-indazole-4-carboxamide] |
| 60.3 |  | 35.1 | 86.2 ± 17 nM | 177 to 179 | COc1cc(OC)c(Cl)c(-c2cc(C(=O)Nc3cccc(-c4cncnc4)c3)c3cn[nH]c3c2)c1Cl [Compound 12i, 6-(2,6-Dichloro-3,5-dimethoxyphenyl)-N-(3-(pyrimidin-5-yl)phenyl)-1H-indazole-4-carboxamide] |
| 52.7 |  | 34.5 | 102.9 ± 0.6 nM | 188 to 190 | COc1cc(OC)c(Cl)c(-c2cc(C(=O)Nc3cccc(-c4cnn(C)c4)c3)c3cn[nH]c3c2)c1Cl [Compound 12h, 6-(2,6-Dichloro-3,5-dimethoxyphenyl)-N-(3-(1-methyl-1H-pyrazol-4-yl)phenyl)-1H-indazole-4-carboxamide] |
| 72.7 |  | 48.3 | ~30.2 nM and 30.2 nM | 205 to 207 | COc1cc(OC)c(Cl)c(-c2cc(C(=O)Nc3cccc(N4CCN(C)CC4)c3)c3cn[nH]c3c2)c1Cl [Compound 13a, 6-(2,6-Dichloro-3,5-dimethoxyphenyl)-N-(3-(4-methylpiperazin-1-yl)phenyl)-1H-indazole-4-carboxamide] |
| 36.8 |  | 9.9 |  |  | CCOC(=O)c1cccc(NC(=O)c2cc(-c3c(Cl)c(OC)cc(OC)c3Cl)cc3[nH]ncc23)c1 [Compound 12c, Ethyl 3-(6-(2,6-dichloro-3,5-dimethoxyphenyl)-1H-indazole-4-carboxamido)benzoate] |
| 35.7 |  | 17.1 |  |  | COC(=O)c1cccc(NC(=O)c2cc(-c3c(Cl)c(OC)cc(OC)c3Cl)cc3[nH]ncc23)c1 [Compound 12a, Methyl 3-(6-(2,6-dichloro-3,5-dimethoxyphenyl)-1H-indazole-4-carboxamido)benzoate] |
| 64.7 |  | 27.7 | 118 ± 3.9 nM | 209 to 211 | COc1cc(OC)c(Cl)c(-c2cc(C(=O)Nc3cccc(N4CCN(C(C)=O)CC4)c3)c3cn[nH]c3c2)c1Cl [Compound 13e, N-(3-(4-Acetylpiperazin-1-yl)phenyl)-6-(2,6-dichloro-3,5-dimethoxyphenyl)-1H-indazole-4-carboxamide] |
| 58.7 |  | 28.3 | 54 ± 8.7 nM | 159 to 161 | COc1cc(OC)c(Cl)c(-c2cc(C(=O)Nc3cccc(N4CCOCC4)c3)c3cn[nH]c3c2)c1Cl [Compound 12f, 6-(2,6-Dichloro-3,5-dimethoxyphenyl)-N-(3-morpholinophenyl)-1H-indazole-4-carboxamide] |

— publication PMC6273472, “Design, Synthesis and Biological Evaluation of 6-(2,6-Dichloro-3,5-dimethoxyphenyl)-4-substituted-1H-indazoles as Potent Fibroblast Growth Factor Receptor Inhibitors” (Molecules, 2016)
